Each structure is given as a SMILES string. pIC50: −log10 of the molar value. Where only a bound is given, the exact number is not on record here.

This is an account of results in patent US6294674A, “Dibenzofuran sulfonamide matrix metalloproteinase inhibitors” (priority 1999, dated 2001).

The target of assay [1] is T1, stromelysin-1 catalytic domain (MMP03) (Homo sapiens, UniProt P08254).
T1 construct: SCD (stromelysin-1 catalytic domain); made in house; host or cells: Escherichia coli
The assay can be described thus: Thiopeptolide assay, stromelysin-1 catalytic domain (SCD, MMP03). The class given is biochemical. As to conditions: Tables 2, 3, 5, 7; read-out: IC50 MMP 3CD. As to the method: (§1) Hydrolysis of the thiopeptolide substrate Ac-Pro-Leu-Gly-thioester-Leu-Leu-Gly-OEt (Bachem) is used as the primary screen to determine IC50 values for MMP inhibitors. A 100 μL reaction contains 1 mM 5,5'-dithiobis(2-nitrobenzoic acid) (DTNB), 100 μM substrate, 0.1% Brij, enzyme, and inhibitor in the appropriate reaction buffer. Activated full-length enzymes are assayed at 5 nM, Stromelysin Catalytic Domain (SCD) at 10 nM, and Gelatinase A Catalytic Domain (GaCD) at 1 nM. Inhibitors are screened from 100 μM to 1 nM. Full-length enzymes are assayed in 50 mM HEPES, 10 mM CaCl2, pH 7.0; SCD in 50 mM MES, 10 mM CaCl2, pH 6.0; and GaCD in 50 mM MOPS, 10 mM CaCl2, 10 μM ZnCl2, pH 7.0.

In assay [2] the test system is MMP-13CD. As to the kind of experiment: Thiopeptolide assay, MMP-13CD. To be noted: Tables 2, 3, 5, 7. The class given is biochemical, human. How it is done: IC50 values were determined using a thiopeptolide substrate, Ac-Pro-Leu-Gly-thioester-Leu-Leu-Gly-OEt (Ye Q.-Z., Johnson L. L., Hupe D. J., and Baragi V., "Purification and Characterization of the Human Stromelysin Catalytic Domain Expressed in Escherichia coli," Biochemistry, 1992;31:11231-11235). MMP01, MMP07, MMP09, and MMP13 activity was assayed in a method similar to MMP02 and MMP03 (SCD and GCD). MMP01 and MMP09 can be obtained from Washington University School of Medicine, St. Louis, Mo. MMP07 can be obtained in accordance with the known procedure set forth by Ye QZ, Johnson L. L., and Baragi V., "Gene Syntheses and Expression in E. coli for PUMP, a Human Matrix Metalloproteinase" Biochem. and Biophys. Res. Comm., 1992; 186:143-149. MMP 13 can be obtained in accordance with the known procedure set forth by Freije J. M. P., et al., "Molecular Cloning and Expression of Collegenase-3, a Novel Human Matrix Metalloproteinase Produced by Breast Carcinomas" J. Bio. Chem., 1994;269:16766-6773.
as §1, with “7.0. The change in absorbance at 405 riM is monitored on a ThermoMax microplate reader at room temperature continuously for 20 minutes.” for “7.0.”

The target of assay [3] is T2, MMP07 (Homo sapiens, UniProt P09237).
T2 construct: made in house; host or cells: Escherichia coli
T2 sequence (P09237 95-267): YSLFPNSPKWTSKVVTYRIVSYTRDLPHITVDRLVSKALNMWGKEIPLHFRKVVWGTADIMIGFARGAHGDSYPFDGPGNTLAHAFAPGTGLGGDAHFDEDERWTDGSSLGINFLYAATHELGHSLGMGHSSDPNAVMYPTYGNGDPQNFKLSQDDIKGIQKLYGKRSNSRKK
The assay can be described thus: Thiopeptolide assay, MMP07. It is filed as biochemical. To be noted: Tables 2, 3, 5, 7; read-out: IC50 MMP-7. As to the method: (§2) MMP01, MMP07, MMP09, and MMP13 activity was assayed in a method similar to MMP02 and MMP03 (SCD and GCD). MMP01 and MMP09 can be obtained from Washington University School of Medicine, St. Louis, Mo. MMP07 can be obtained in accordance with the known procedure set forth by Ye QZ, Johnson L. L., and Baragi V., "Gene Syntheses and Expression in E. coli for PUMP, a Human Matrix Metalloproteinase" Biochem. and Biophys. […] MMP 13 can be obtained in accordance with the known procedure set forth by Freije J. M. P., et al., "Molecular Cloning and Expression of Collegenase-3, a Novel Human Matrix Metalloproteinase Produced by Breast Carcinomas" J. Bio.
as §1

In assay [4] the target is T3, MMP01 (Homo sapiens, UniProt P03956).
T3 construct: purchased Washington University School of Medicine, St. Louis, Mo
T3 sequence (P03956 100-469): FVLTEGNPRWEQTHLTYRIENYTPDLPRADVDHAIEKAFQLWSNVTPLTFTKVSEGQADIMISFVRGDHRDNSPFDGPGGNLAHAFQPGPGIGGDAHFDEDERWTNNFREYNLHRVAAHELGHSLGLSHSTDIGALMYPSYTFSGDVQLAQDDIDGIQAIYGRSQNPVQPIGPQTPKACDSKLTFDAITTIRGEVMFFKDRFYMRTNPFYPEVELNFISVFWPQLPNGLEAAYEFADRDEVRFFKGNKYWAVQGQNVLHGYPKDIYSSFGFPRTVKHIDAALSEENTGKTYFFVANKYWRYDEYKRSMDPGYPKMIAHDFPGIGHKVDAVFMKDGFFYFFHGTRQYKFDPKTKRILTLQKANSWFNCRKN
The assay can be described thus: Thiopeptolide assay, MMP01. It is filed as biochemical. To be noted: Tables 2, 3, 5, 7; read-out: IC50 MMP1. How it is done: as §2, §1

For assay [5], the target named is gelatinase A catalytic domain (MMP02). As to the kind of experiment: Thiopeptolide assay, gelatinase A catalytic domain (GCD, MMP02). The class given is biochemical. As to conditions: Tables 2, 3, 5, 7; read-out: IC50 MMP-2CD. How it is done: as §1

T1 sequence (P08254 100-272 limits assumed): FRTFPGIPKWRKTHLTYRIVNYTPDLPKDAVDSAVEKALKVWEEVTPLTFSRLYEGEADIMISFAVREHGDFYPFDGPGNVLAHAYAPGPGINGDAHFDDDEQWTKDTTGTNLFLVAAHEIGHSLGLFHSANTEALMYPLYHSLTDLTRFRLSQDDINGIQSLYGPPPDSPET

The term pIC50 denotes −log10 of the IC50, conventionally taken in molar units. Regarding `Cc1cc(OCCCC(=O)NCCCCC(NS(=O)(=O)c2ccc3oc4ccccc4c3c2)C(=O)O)ccc1Cl` (stereo not shown) [Example A16, 6-[4-(4-Chloro-3-methyl-phenoxy)-butyrylamino]-2-(dibenzofuran-2-sulfonylamino)-hexanoic acid], the negative logarithm of the IC50 (pIC50) in assay [1] is 5.19; in assay [2], 4.46; in assay [3], below 4.00; in assay [4], below 4.00; in assay [5], 5.26.
Regarding `COc1ccccc1CNC(=O)CCC(NS(=O)(=O)c1ccc2oc3ccccc3c2c1)C(=O)O` (stereo not shown) [Example F15, 2-(Dibenzofuran-2-sulfonylamino)-4-(2-methoxy-benzylcarbamoyl)-butyric acid], the negative logarithm of the IC50 (pIC50) in assay [1] is 5.74; in assay [2] it was 6.22; in assay [3], 4.43; in assay [4] it was below 4.00; in assay [5], 6.52.
For the compound `O=C(Cc1ccc2c(c1)OCO2)NCCCCC(NS(=O)(=O)c1ccc2oc3ccccc3c2c1)C(=O)O` (stereo not shown) [Example A19, 6-(2-Benzo[1,3]dioxol-5-yl-acetylamino)-2-(dibenzofuran-2-sulfonylamino)-hexanoic acid], the negative-log IC50 (pIC50) in assay [1] was 5.77; in assay [2], 5.52; in assay [3], 4.03; in assay [4], below 4.00; in assay [5], 6.00.
Turning to `COc1ccc(CCC(=O)NCCCCC(NS(=O)(=O)c2ccc3oc4ccccc4c3c2)C(=O)O)cc1` (stereo not shown) [Example A17, 2-(Dibenzofuran-2-sulfonylamino)-6-[3-(4-methoxy-phenyl)-propionylamino]-hexanoic acid], the pIC50 in assay [1] was 6.05; in assay [2], 5.36; in assay [3], 4.27; in assay [4], below 4.00; in assay [5], 6.15.
The corresponding values for `O=C(Cc1cccs1)NCCCCC(NS(=O)(=O)c1ccc2oc3ccccc3c2c1)C(=O)O` (stereo not shown) [Example A5, 2-(Dibenzofuran-2-sulfonylamino)-6-(2-thiophen-2-yl-acetylamino)-hexanoic acid] are 6.30, 5.96, 4.45, below 4.00 and 6.05.
As for `O=C(CCCc1c[nH]c2ccccc12)NCCCCC(NS(=O)(=O)c1ccc2oc3ccccc3c2c1)C(=O)O` (stereo not shown) [Example A31, 2-(Dibenzofuran-2-sulfonylamino)-6-(4-1H-indol-3-yl-butyrylamino)-hexanoic acid], the pIC50 in assay [1] was 5.19; in assay [2], 4.89; in assay [3] it was below 4.00; in assay [4] it was below 4.00; in assay [5] it was 5.48.
Regarding `CC(C)(Oc1ccc(Cl)cc1)C(=O)NCCCCC(NS(=O)(=O)c1ccc2oc3ccccc3c2c1)C(=O)O` (stereo not shown) [Example A1, 6-[2-(4-Chloro-phenoxy)-2-methyl-propionylamino]-2-(dibenzofuran-2-sulfonylamino)-hexanoic acid], the pIC50 in assay [1] was 5.02; in assay [2], 4.96; in assay [3], below 4.00; in assay [4], below 4.00; in assay [5] it was 5.28.
For the compound `CC(C)(C)c1ccc(OCC(=O)NCCCCC(NS(=O)(=O)c2ccc3oc4ccccc4c3c2)C(=O)O)cc1` (stereo not shown) [Example A10, 6-[2-(4-tert-Butyl-phenoxy)actylamino]-2-(dibenzofuran-2-sulfonylamino)-hexanoic acid], the pIC50 was 4.58 in assay [1]; 4.20 in assay [2]; below 4.00 in assay [3]; below 4.00 in assay [4]; 5.03 in assay [5].
Consider `O=C(COc1ccccc1)NCCCCC(NS(=O)(=O)c1ccc2oc3ccccc3c2c1)C(=O)O` (stereo not shown) [Example A8, 2-(Dibenzofuran-2-sulfonylamino)-6-(2-phenoxy-acetylamino)-hexanoic acid], for which the pIC50 in assay [1] was 5.60; in assay [2] it was 5.32; in assay [3], below 4.00; in assay [4] it was below 4.00; in assay [5], 5.80.
As for `O=C(CCC(NS(=O)(=O)c1ccc2oc3ccccc3c2c1)C(=O)O)NC1CC1` (stereo not shown) [Example F6, 4-Cyclopropylcarbamoyl-2-(dibenzofuran-2-sulfonylamino)-butyric acid], the pIC50 is 6.70 in assay [1]; 6.52 in assay [2]; 4.83 in assay [3]; 4.16 in assay [4]; 6.70 in assay [5].
Take `O=C(O)C(CCCCNC(=O)C1(c2ccccc2)CC1)NS(=O)(=O)c1ccc2oc3ccccc3c2c1` (stereo not shown) [Example A38, 2-(Dibenzofuran-2-sulfonylamino)-6-(1-phenyl-cyclopropanecarbonylamino)-hexanoic acid]: the negative-log IC50 (pIC50) in assay [1] was 5.85; in assay [2], 5.38; in assay [3], below 4.00; in assay [4] it was below 4.00; in assay [5], 6.22.
In the case of `CCC(Oc1ccccc1)C(=O)NCCCCC(NS(=O)(=O)c1ccc2oc3ccccc3c2c1)C(=O)O` (stereo not shown) [Example A6, 2-(Dibenzofuran-2-sulfonylamino)-6-(2-phenoxy-butrylamino)-hexanoic acid], the negative-log IC50 (pIC50) in assay [1] was 5.41; in assay [2] it was 5.10; in assay [3], below 4.00; in assay [4], below 4.00; in assay [5], 5.82.
For the compound `O=C(O)C(CCCCNS(=O)(=O)c1ccc(F)cc1)NS(=O)(=O)c1ccc2oc3ccccc3c2c1` (stereo not shown) [Example D1, 2-(Dibenzofuran-2-sulfonylamino)-6-(4-fluoro-benzenesulfonylamino)-hexanoicacid], the pIC50 is 5.54 in assay [1]; 5.62 in assay [2]; below 4.00 in assay [3]; below 4.00 in assay [4]; 5.77 in assay [5].
For the compound `O=C(O)C(CCCCNS(=O)(=O)c1ccccc1)NS(=O)(=O)c1ccc2oc3ccccc3c2c1` (stereo not shown) [Example D6, 6-Benzenesulfonylamino-2-(dibenzofuran-2-sulfonylamino)-hexanoic acid], the negative logarithm of the IC50 (pIC50) in assay [1] is 5.60; in assay [2], 5.48; in assay [3] it was 4.04; in assay [4], below 4.00; in assay [5] it was 5.85.
